Numbers after ± are expanded uncertainties.
Experiments:
[1] = for mass density: 298.15 K, 101.33 kPa, Liquid, Pycnometric method
[2] = Molar enthalpy of transition or fusion; settings: Crystal; DSC

mass density [1]	Triple point temperature ([1]; Crystal, DSC)	Molar enthalpy of transition or fusion [2]	SMILES
811.4 ± 1.5 kg/m3			CCCCCO [pentan-1-ol]
799.7 ± 1.5 kg/m3			CCCO [propan-1-ol]
806 ± 1.5 kg/m3			CCCCO [butan-1-ol]
786.6 ± 0.6 kg/m3			CO [methanol]
	376.35 ± 0.93 K	3.05 ± 0.0932 kcal/mol	CNC(=O)NC [1,3-dimethylurea]
821.6 ± 1.5 kg/m3			CCCCCCCCO [octan-1-ol]
819.2 ± 1.5 kg/m3			CCCCCCCO [heptan-1-ol]
815.7 ± 1.5 kg/m3			CCCCCCO [hexan-1-ol]
785.3 ± 1.5 kg/m3			CCO [ethanol]

Reference: the NIST ThermoML archive (doi:10.1021/acs.jced.5b00882)
